US20240425491A1, “HETEROARYL COMPOUNDS USEFUL IN THE TREATMENT OF COGNITIVE DISORDERS” (University College Cardiff Consultants Limited, priority 2021, published 2024)
Structures can show the parent of a compound that is named as a salt.

target: T1, human recombinant GABAAR containing α5β3γ2 subunits (benzodiazepine site) (Homo sapiens, UniProt P18507+P31644); test: In vitro radioligand binding assay (α5-GABAAR Ki); conditions: inhibition of [3H]Ro15-1788 binding, membranes of L(tk−) cells expressing human α5β3γ2; read-out: α5-GABAAR Ki
T1 construct: expressed in transfected cells; host or cells: mouse L(tk−) cells, dexamethasone-inducible vector pMSGneo
T1 sequence (P31644 32-462): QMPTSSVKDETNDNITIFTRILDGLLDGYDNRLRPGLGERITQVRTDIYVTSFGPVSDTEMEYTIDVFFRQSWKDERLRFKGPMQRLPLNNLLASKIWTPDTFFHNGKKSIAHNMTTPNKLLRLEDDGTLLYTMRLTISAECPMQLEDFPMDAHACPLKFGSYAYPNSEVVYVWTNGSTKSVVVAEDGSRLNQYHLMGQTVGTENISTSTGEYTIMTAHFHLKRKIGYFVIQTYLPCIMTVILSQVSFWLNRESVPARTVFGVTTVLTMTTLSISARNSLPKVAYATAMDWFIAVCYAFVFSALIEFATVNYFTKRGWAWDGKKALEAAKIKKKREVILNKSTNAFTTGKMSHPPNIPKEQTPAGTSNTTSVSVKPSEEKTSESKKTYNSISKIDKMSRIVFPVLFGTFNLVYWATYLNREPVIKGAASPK
T1 sequence (P28472 26-473 partner): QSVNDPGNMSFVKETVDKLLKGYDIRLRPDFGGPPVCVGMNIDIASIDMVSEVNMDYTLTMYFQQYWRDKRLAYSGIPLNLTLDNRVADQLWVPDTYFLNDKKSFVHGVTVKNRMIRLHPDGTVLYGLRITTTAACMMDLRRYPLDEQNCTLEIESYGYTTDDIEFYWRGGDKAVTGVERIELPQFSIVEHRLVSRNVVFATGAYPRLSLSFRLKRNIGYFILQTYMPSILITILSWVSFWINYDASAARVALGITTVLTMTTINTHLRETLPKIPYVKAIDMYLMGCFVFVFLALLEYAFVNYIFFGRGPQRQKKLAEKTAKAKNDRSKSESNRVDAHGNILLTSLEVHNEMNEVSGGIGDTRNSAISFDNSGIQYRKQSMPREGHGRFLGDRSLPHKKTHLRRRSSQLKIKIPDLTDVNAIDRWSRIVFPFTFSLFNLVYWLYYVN
T1 sequence (P18507 40-475): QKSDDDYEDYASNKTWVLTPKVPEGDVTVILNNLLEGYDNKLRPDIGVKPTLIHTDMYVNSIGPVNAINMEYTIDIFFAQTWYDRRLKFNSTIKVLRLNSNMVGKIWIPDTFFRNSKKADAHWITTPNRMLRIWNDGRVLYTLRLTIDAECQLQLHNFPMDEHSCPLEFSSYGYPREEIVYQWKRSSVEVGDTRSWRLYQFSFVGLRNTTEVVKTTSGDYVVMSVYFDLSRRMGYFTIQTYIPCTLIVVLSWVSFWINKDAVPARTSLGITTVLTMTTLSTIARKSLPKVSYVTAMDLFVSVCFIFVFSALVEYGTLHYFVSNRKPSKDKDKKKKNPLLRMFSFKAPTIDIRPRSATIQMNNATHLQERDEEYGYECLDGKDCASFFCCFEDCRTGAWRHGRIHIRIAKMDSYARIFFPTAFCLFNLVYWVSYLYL
From the text: Mouse L(tk^−) cells stably expressing human α1β3γ2, α2β3γ2, α3β3γ2, α5β3γ2 GABAARs generated by transfection of the individual subunits in the dexamethasone-inducible expression vector pMSGneo in mouse L(tk^−) cells (Hadingham et al., 1993, Mol. Pharmacol. 43:970-975 and 1993, Mol. Pharmacol. 44:1211-1218) were used for binding and functional assays. For certain compounds, HEK293 cells stable expressing the human α1β3γ2L, α2β3γ2L, α3β3γ2L and α5β3γ2L GABAA receptors were used to evaluate their functional effects in a SyncroPatch electrophysiology assay.
L(tk^−) cells stably expressing human α1β3γ2, α2β3γ2, α3β3γ2, α5β3γ2 GABAARs were maintained in DMEM F12 medium supplemented with 10% Foetal Bovine Serum, 1% Penicillin/Streptomycin and 1 mg/mL Geneticin G418 in an incubator at 37° C. with a humidified atmosphere with 5% CO2.
The affinity (Ki) of compounds for the benzodiazepine site of human recombinant GABAARs was measured by their ability to inhibit the binding of the selective benzodiazepine antagonist [^3H] Ro15-1788 ([^3H] flumazenil).
L(tk^−) cells expressing human recombinant GABAAR containing α1β3γ2, α2β3γ2, α3β3γ2, α5β3γ2 subunits were harvested and membranes were prepared for each receptor combination in phosphate buffer (K2PO4 10 mM, pH 7.0) (Hadingham et al. (1992) Proc. Natl. Acad. Sci. USA; 89 (14): 6378-82). Protein concentration, receptor expression and the Kd of [^3H] Ro15-1788 were determined before Ki values of compounds were evaluated. For Kd evaluation, saturation binding curves were obtained by incubating membrane with various concentrations of [^3H] Ro15-1788 (82.5 Ci/mM), with nonspecific binding measured in the presence of 1 μM TP003.
For Ki evaluation, cell membranes were incubated with 4 nM [^3H] Ro15-1788 along with a range of concentrations of test compound. Nonspecific binding was determined using 1 μM TP003. All incubations were performed for 1 hour at 4° C. in assay buffer. The total assay volume was 0.5 mL, containing 100 μg membrane protein/well α1β3γ2, α2β3γ2, α3β3γ2 and 50 μg membrane protein/well for α53γ2. Incubations were terminated by filtration and washing with ice cold Tris-HCl buffer (50 mM, pH=7.4) over Whatman GF/B filters and the radioactivity of the filters was measured using liquid scintillation counting.
The % inhibition of [^3H] Ro15-1788 binding was plotted as a function of compound concentration and the IC50 calculated. From the IC50, the affinity (Ki) was calculated using the method of Cheng and Prusoff using the Kd values obtained for [^3H] Ro15-1788.

| Compound | Ki [µM] |
| --- | --- |
| COc1nc(-c2ccncn2)ccc1NC(=O)c1c(-c2ccccc2)noc1C [Example 65, N-(2-Methoxy-6-pyrimidin-4-yl-3-pyridyl)-5-methyl-3-phenyl-isoxazole-4-carboxamide] | 0.049 |
| COc1nc(-c2ccc3c(=O)[nH]ncc3c2)ccc1NC(=O)c1c(-c2ccccc2)noc1C [Example 117, N-(2-Methoxy-6-(1-oxo-1,2-dihydrophthalazin-6-yl)pyridin-3-yl)-5-methyl-3-phenylisoxazole-4-carboxamide] | 0.0026 |
| COc1nc(-c2cnccn2)ccc1NC(=O)c1c(-c2ccccc2)noc1C [Example 113, N-(2-Methoxy-6-(pyrazin-2-yl)pyridin-3-yl)-5-methyl-3-phenylisoxazole-4-carboxamide] | 0.0417 |
| COc1nc(-c2cnoc2)ccc1NC(=O)c1c(-c2ccc(F)cc2)noc1N1CCC1 [Example 210, 5-(Azetidin-1-yl)-3-(4-fluorophenyl)-N-(6-isoxazol-4-yl-2-methoxy-3-pyridyl) isoxazole-4-carboxamide] | 0.0137 |
| COc1nc(-c2cccc(N(C)C)c2)ccc1NC(=O)c1c(-c2ccccc2)noc1C [Example 16, N-[6-[3-(Dimethylamino)phenyl]-2-methoxy-3-pyridyl]-5-methyl-3-phenyl-isoxazole-4-carboxamide] | 0.403 |
| COc1nc(-c2ccc(C=O)cc2)ccc1NC(=O)c1c(-c2ccccc2)noc1C [Example 220, N-[6-(4-formylphenyl)-2-methoxy-3-pyridyl]-5-methyl-3-phenyl-isoxazole-4-carboxamide] | 0.0034 |
| COc1nc(-c2ccncc2C)ccc1NC(=O)c1c(-c2ccccc2)noc1C [Example 24, N-[2-Methoxy-6-(3-methyl-4-pyridyl)-3-pyridyl]-5-methyl-3-phenyl-isoxazole-4-carboxamide] | 0.162 |
| COc1nc(-c2cnc(CN)nc2)ccc1NC(=O)c1c(-c2ccc(Cl)cn2)nnn1C [Example 203, N-(6-(2-(Aminomethyl)pyrimidine-5-yl)-2-methoxypyridin-3-yl)-4-(5-chloropyridin-2-yl)-1-methyl-1H-1,2,3-triazole-5-carboxamide hydrochloride] | 0.017 |
| CCOC(=O)Cn1c(-c2ccc(NC(=O)c3c(-c4ccccc4)noc3C)c(OC)n2)cnc1C [Example 134, Ethyl 2-[5-[6-methoxy-5-[(5-methyl-3-phenyl-isoxazole-4-carbonyl)amino]-2-pyridyl]-2-methyl-imidazol-1-yl] acetate] | 0.0519 |
| COc1nc(-c2ccc(CN3CCOCC3)cc2)ccc1NC(=O)c1c(-c2ccccc2)noc1C [Example 225, N-[2-methoxy-6-[4-(morpholinomethyl)phenyl]-3-pyridyl]-5-methyl-3-phenyl-isoxazole-4-carboxamide] | 0.0077 |
| COc1nc(-c2c[nH]c3ncccc23)ccc1NC(=O)c1c(-c2ccccc2)noc1C [Example 105, N-(2-Methoxy-6-(1H-pyrrolo[2,3-b]pyridin-3-yl)pyridin-3-yl)-5-methyl-3-phenylisoxazole-4-carboxamide] | 0.113 |
| COc1cc(-c2cnc(N)cn2)ccc1NC(=O)c1c(-c2ccccc2)noc1C [Example 198, N-[4-(5-Aminopyrazin-2-yl)-2-methoxy-phenyl]-5-methyl-3-phenyl-isoxazole-4-carboxamide hydrochloride] | 0.0043 |
| COc1nc(-c2nnc3n2CCN(C)C3)ccc1NC(=O)c1c(-c2ccccc2)noc1C [Example 195, N-(2-Methoxy-6-(7-methyl-5,6,7,8-tetrahydro-[1,2,4]triazolo[4,3-a]pyrazin-3-yl)pyridin-3-yl)-5-methyl-3-phenylisoxazole-4-carboxamide] | 0.0235 |

Further compounds by falling Ki, results first:

| Ki [µM] | Compound |
| --- | --- |
| 0.22 | COc1nc(-c2ccc(CCl)cc2)ccc1NC(=O)c1c(-c2ccccc2)noc1C [Example 224, N-[6-[4-(chloromethyl)phenyl]-2-methoxy-3-pyridyl]-5-methyl-3-phenyl-isoxazole-4-carboxamide] |
| 0.104 | COc1nc(-c2cccc([N+](=O)[O-])c2)ccc1NC(=O)c1c(-c2ccccc2)noc1C [Example 8, N-[2-Methoxy-6-(3-nitrophenyl)-3-pyridyl]-5-methyl-3-phenyl-isoxazole-4-carboxamide] |
| 0.0998 | COc1nc(-c2cn(-c3nccs3)nc2C)ccc1NC(=O)c1c(-c2ccccc2)noc1C [Example 115, N-(2-Methoxy-6-(3-methyl-1-(thiazol-2-yl)-1H-pyrazol-4-yl)pyridin-3-yl)-5-methyl-3-phenylisoxazole-4-carboxamide] |
| 0.0778 | COc1nc(-c2cnc(CN)nc2)ccc1NC(=O)c1c(-c2ccccn2)nnn1C [Example 202, N-(6-(2-(Aminomethyl)pyrimidin-5-yl)-2-methoxypyridin-3-yl)-1-methyl-4-(pyridin-2-yl)-1H-1,2,3-triazole-5-carboxamide hydrochloride] |
| 0.0729 | COc1ncc(-c2ccc(NC(=O)c3c(-c4ccccc4)noc3C)c(OC)n2)s1 [Example 10, N-[2-Methoxy-6-(2-methoxythiazol-5-yl)-3-pyridyl]-5-methyl-3-phenyl-isoxazole-4-carboxamide] |
| 0.0691 | COc1cc(-c2c(C)n[nH]c2C)cnc1NC(=O)c1c(-c2ccccc2)noc1C [Example 31, N-[5-(3,5-Dimethyl-1H-pyrazol-4-yl)-3-methoxy-2-pyridyl]-5-methyl-3-phenyl-isoxazole-4-carboxamide] |
| 0.0229 | COc1nc(C)c(-c2ccc(NC(=O)c3c(-c4ccccc4)noc3C)c(OC)n2)c(C)n1 [Example 193, N-[2-Methoxy-6-(2-methoxy-4,6-dimethyl-pyrimidin-5-yl)-3-pyridyl]-5-methyl-3-phenyl-isoxazole-4-carboxamide] |
| 0.0205 | COc1nc(-c2ncn(C)n2)ccc1NC(=O)c1c(-c2ccccc2)noc1C [Example 51, N-[2-Methoxy-6-(1-methyl-1,2,4-triazol-3-yl)-3-pyridyl]-5-methyl-3-phenyl-isoxazole-4-carboxamide] |
| 0.0084 | COc1nc(-c2cncc(OC(F)F)c2)cnc1NC(=O)c1c(-c2ccccc2)noc1C [Example 158, N-[5-[5-(Difluoromethoxy)-3-pyridyl]-3-methoxy-pyrazin-2-yl]-5-methyl-3-phenyl-isoxazole-4-carboxamide] |
| 0.007 | COc1nc(-c2ccc(CN3CC4COCC4C3)cc2)ccc1NC(=O)c1c(-c2ccccc2)noc1C (stereo not shown) [Example 233, N-(2-methoxy-6-(4-((tetrahydro-1H-furo[3,4-c]pyrrol-5 (3H)-yl)methyl)phenyl)pyridin-3-yl)-5-methyl-3-phenylisoxazole-4-carboxamide] |
| 0.0029 | COc1nc(-c2c[nH]c(=O)c(F)c2)ccc1NC(=O)c1c(-c2ccccc2)noc1C [Example 116, N-(5′-Fluoro-6-methoxy-6′-oxo-1′,6′-dihydro-[2,3′-bipyridin]-5-yl)-5-methyl-3-phenylisoxazole-4-carboxamide] |
| 0.002 | COc1nc(-c2cnc(Cl)nc2)ccc1NC(=O)c1c(-c2ccccc2)noc1C [Example 36, N-[6-(2-Chloropyrimidin-5-yl)-2-methoxy-3-pyridyl]-5-methyl-3-phenyl-isoxazole-4-carboxamide] |
| 0.0013 | COc1ncc(-c2ccc(NC(=O)c3c(-c4ccccc4)noc3C)c(OC)n2)c(C)n1 [Example 191, N-[2-Methoxy-6-(2-methoxy-4-methyl-pyrimidin-5-yl)-3-pyridyl]-5-methyl-3-phenyl-isoxazole-4-carboxamide] |
| 0.0013 | COc1nc(-c2cnc(CN)nc2)ccc1NC(=O)c1c(-c2ccc(F)cc2)noc1NCCCCl [Example 211, N-[6-[2-(Aminomethyl)pyrimidin-5-yl]-2-methoxy-3-pyridyl]-5-(3-chloropropylamino)-3-(4-fluorophenyl) isoxazole-4-carboxamide hydrochloride] |
| 0.0004 | COc1cc(-c2cnc(N)nc2)ccc1NC(=O)c1c(-c2ccccc2)noc1C [Example 197, N-[4-(2-Aminopyrimidin-5-yl)-2-methoxy-phenyl]-5-methyl-3-phenyl-isoxazole-4-carboxamide hydrochloride] |
